In patent US20150175599A1, “FAAH Inhibitors” (Ironwood Pharmaceuticals, Inc., priority 2010, published 2015):

Molecular target: T1, hERG channel (Homo sapiens, UniProt Q12809)
T1 construct: expressed in transfected cells; host or cells: CHO (hERG-CHO), under Geneticin selection
Assay: hERG channel inhibition, automated patch clamp (IonWorks HT, hERG-CHO)
Type: cell-based
Settings: CHO cells expressing hERG, 600 s incubation; for inhibition at 600 s, 1 µM: 1 μM compound, read-out: hERG Channel Inhibition % (at 1 μM), vehicle-subtracted values; for inhibition at 600 s, 10 µM: 10 μM compound, read-out: hERG Channel Inhibition % (at 10 μM), vehicle-subtracted values
Method in brief: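 hERG-CHO cells held at 30 °C for 48 h before IonWorks HT patch clamp: from −80 mV to +40 for 2 s, then −50 mV for 2 s tail, repeated three times, before and after 600 s compound exposure. Third-pulse post/pre tail amplitude ratio gave percent inhibition; cells with seal <50 MOhm or tail <250 pA excluded.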

T1 sequence (Q12809 whole entry): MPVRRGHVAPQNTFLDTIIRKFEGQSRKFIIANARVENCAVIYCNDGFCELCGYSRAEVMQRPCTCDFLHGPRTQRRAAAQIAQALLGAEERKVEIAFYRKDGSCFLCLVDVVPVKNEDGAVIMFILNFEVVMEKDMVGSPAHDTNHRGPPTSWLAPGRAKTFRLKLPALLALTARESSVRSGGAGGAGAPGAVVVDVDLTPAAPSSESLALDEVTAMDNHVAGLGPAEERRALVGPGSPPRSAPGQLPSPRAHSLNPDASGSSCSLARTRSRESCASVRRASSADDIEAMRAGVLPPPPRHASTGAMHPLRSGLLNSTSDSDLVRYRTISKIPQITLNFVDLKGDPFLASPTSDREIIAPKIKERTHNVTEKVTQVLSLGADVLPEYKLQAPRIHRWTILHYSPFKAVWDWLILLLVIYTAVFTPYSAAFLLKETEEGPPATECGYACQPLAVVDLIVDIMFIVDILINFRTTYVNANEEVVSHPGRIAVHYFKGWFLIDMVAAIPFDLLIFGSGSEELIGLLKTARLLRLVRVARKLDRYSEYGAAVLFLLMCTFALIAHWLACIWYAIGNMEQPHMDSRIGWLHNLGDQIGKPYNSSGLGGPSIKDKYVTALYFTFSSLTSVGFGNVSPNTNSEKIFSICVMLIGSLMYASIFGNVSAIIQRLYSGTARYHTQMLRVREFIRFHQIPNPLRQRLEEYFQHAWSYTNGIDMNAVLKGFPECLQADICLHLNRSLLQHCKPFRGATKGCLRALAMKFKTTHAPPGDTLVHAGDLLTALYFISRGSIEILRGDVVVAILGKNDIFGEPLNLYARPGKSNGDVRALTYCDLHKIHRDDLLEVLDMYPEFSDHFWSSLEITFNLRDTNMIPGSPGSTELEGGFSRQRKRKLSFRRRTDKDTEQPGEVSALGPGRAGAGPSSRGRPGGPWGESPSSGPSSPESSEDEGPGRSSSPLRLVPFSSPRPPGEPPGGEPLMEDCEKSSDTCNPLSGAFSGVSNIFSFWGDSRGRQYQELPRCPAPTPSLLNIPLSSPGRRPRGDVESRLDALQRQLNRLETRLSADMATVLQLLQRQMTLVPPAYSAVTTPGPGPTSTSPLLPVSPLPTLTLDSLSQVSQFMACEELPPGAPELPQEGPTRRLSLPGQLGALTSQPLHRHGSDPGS

## COc1cc(NC(=O)C(=O)c2c(C)n(Cc3ccc(F)cn3)c3ccc(C)cc23)ccn1 [Compound 85, 2-(1-((5-fluoropyridin-2-yl)methyl)-2,5-dimethyl-1H-indol-3-yl)-N-(2-methoxypyridin-4-yl)-2-oxoacetamide]
  inhibition at 600 s, 1 µM: < 25%
  inhibition at 600 s, 10 µM: 25 to 50%

## COc1cc(NC(=O)C(=O)c2c(C)n(Cc3ccc(Cl)cc3)c3cc(OC)c(Cl)cc23)ccn1 [Compound 80, 2-(5-chloro-1-(4-chlorobenzyl)-6-methoxy-2-methyl-1H-indol-3-yl)-N-(2-methoxypyridin-4-yl)-2-oxoacetamide]
  inhibition at 600 s, 1 µM: < 25%
  inhibition at 600 s, 10 µM: < 25%

## COc1cc(NC(=O)C(=O)c2c(C)n(Cc3ccc(Cl)cc3)c3cccnc23)ccn1 [Compound 3, 2-(1-(4-chlorobenzyl)-2-methyl-1H-pyrrolo[3,2-b]pyridin-3-yl)-N-(2-methoxypyridin-4-yl)-2-oxoacetamide]
  inhibition at 600 s, 1 µM: < 25%
  inhibition at 600 s, 10 µM: 25 to 50%

## COc1ccc2c(c1)c(C(=O)C(=O)Nc1ccnc(OC)c1)c(C)n2Cc1ncc(Cl)cc1F [Compound 87, 2-(1-((5-chloro-3-fluoropyridin-2-yl)methyl)-5-methoxy-2-methyl-1H-indol-3-yl)-N-(2-methoxypyridin-4-yl)-2-oxoacetamide]
  inhibition at 600 s, 1 µM: < 25%
  inhibition at 600 s, 10 µM: < 25%

## COc1cc(NC(=O)C(=O)c2c(C)n(Cc3ccc(Cl)cn3)c3cc(Cl)c(C)cc23)ccn1 [Compound 94, 2-(6-chloro-1-((5-chloropyridin-2-yl)methyl)-2,5-dimethyl-1H-indol-3-yl)-N-(2-methoxypyridin-4-yl)-2-oxoacetamide]
  inhibition at 600 s, 1 µM: < 25%
  inhibition at 600 s, 10 µM: < 25%

## COc1cc(NC(=O)C(=O)c2c(C)n(Cc3ccc(Cl)cc3Cl)c3cc(F)c(OC)cc23)ccn1 [Compound 92, 2-(1-(2,4-dichlorobenzyl)-6-fluoro-5-methoxy-2-methyl-1H-indol-3-yl)-N-(2-methoxypyridin-4-yl)-2-oxoacetamide]
  inhibition at 600 s, 1 µM: < 25%
  inhibition at 600 s, 10 µM: < 25%

## COc1ccc2c(c1)c(C(=O)C(=O)Nc1ccnc(OC)c1)c(C)n2Cc1ccc(C)cn1 [Compound 84, 2-(5-methoxy-2-methyl-1-((5-methylpyridin-2-yl)methyl)-1H-indol-3-yl)-N-(2-methoxypyridin-4-yl)-2-oxoacetamide]
  inhibition at 600 s, 1 µM: < 25%
  inhibition at 600 s, 10 µM: < 25%

## COc1ccc2c(c1)c(C(=O)C(=O)Nc1ccnc(OC)c1)c(C)n2Cc1ccc(Cl)cn1 [Compound 79, 2-(1-((5-chloropyridin-2-yl)methyl)-5-methoxy-2-methyl-1H-indol-3-yl)-N-(2-methoxypyridin-4-yl)-2-oxoacetamide]
  inhibition at 600 s, 1 µM: < 25%
  inhibition at 600 s, 10 µM: < 25%

## COc1cc(NC(=O)C(=O)c2c(C)n(Cc3ccc(Cl)cc3)c3cc(Cl)c(C)cc23)ccn1 [Compound 93, 2-(6-chloro-1-(4-chlorobenzyl)-2,5-dimethyl-1H-indol-3-yl)-N-(2-methoxypyridin-4-yl)-2-oxoacetamide]
  inhibition at 600 s, 1 µM: < 25%
  inhibition at 600 s, 10 µM: < 25%

## COc1ccc2c(c1)c(C(=O)C(=O)Nc1ccnc(OC)c1)c(C)n2Cc1ncc(Cl)cc1Cl [Compound 82, 2-(1-((3,5-dichloropyridin-2-yl)methyl)-5-methoxy-2-methyl-1H-indol-3-yl)-N-(2-methoxypyridin-4-yl)-2-oxoacetamide]
  inhibition at 600 s, 1 µM: < 25%
  inhibition at 600 s, 10 µM: < 25%

## COc1cc(NC(=O)C(=O)c2c(C)n(Cc3ccc(Cl)cc3)c3cc(F)c(C)cc23)ccn1 [Compound 89, 2-(1-(4-chlorobenzyl)-6-fluoro-2,5-dimethyl-1H-indol-3-yl)-N-(2-methoxypyridin-4-yl)-2-oxoacetamide]
  inhibition at 600 s, 1 µM: < 25%
  inhibition at 600 s, 10 µM: < 25%

## COc1cc(NC(=O)C(=O)c2c(C)n(Cc3ccc(Cl)cn3)c3cc(F)c(C)cc23)ccn1 [Compound 90, 2-(1-((5-chloropyridin-2-yl)methyl)-6-fluoro-2,5-dimethyl-1H-indol-3-yl)-N-(2-methoxypyridin-4-yl)-2-oxoacetamide]
  inhibition at 600 s, 1 µM: < 25%
  inhibition at 600 s, 10 µM: < 25%

## COc1ccc2c(c1)c(C(=O)C(=O)Nc1ccnc(OC)c1)c(C)n2Cc1ncc(F)cc1F [Compound 81, 2-(1-((3,5-difluoropyridin-2-yl)methyl)-5-methoxy-2-methyl-1H-indol-3-yl)-N-(2-methoxypyridin-4-yl)-2-oxoacetamide]
  inhibition at 600 s, 1 µM: < 25%
  inhibition at 600 s, 10 µM: < 25%

## COc1ccc2c(c1)c(C(=O)C(=O)Nc1ccnc(OC)c1)c(C)n2Cc1cccnc1 [Compound 78, 2-(5-methoxy-2-methyl-1-(pyridin-3-ylmethyl)-1H-indol-3-yl)-N-(2-methoxypyridin-4-yl)-2-oxoacetamide]
  inhibition at 600 s, 1 µM: < 25%
  inhibition at 600 s, 10 µM: 25 to 50%
